The source of these data is paper PMC10254843, “Discovery of New 2-Phenylamino-3-acyl-1,4-naphthoquinones as Inhibitors of Cancer Cells Proliferation: Searching for Intra-Cellular Targets Playing a Role in Cancer Cells Survival” (Molecules, 2023).

In data set [1] the test system is non-tumorigenic HEK-293 (embryonic kidney cells). Kind of data set: MTT cell survival assay, non-tumorigenic HEK-293 cells. The data set is classed as cell-based. The conditions noted are these: Homo sapiens, HEK293; MTT test; cells incubated at 37 °C for 48 h (Table 1 footnote); mean ± SEM, n = 3. The procedure:
(§1) Human cancer cell lines from bladder (T24), prostate (DU–145), breast (MCF–7) and non-tumor HEK-293 cells were obtained from the American Type Culture Collection (ATCC, Manassas, VA, USA). The cultures were maintained at a density of 1–2 × 10^5 cells/mL and the medium was changed at 48- and 72-h intervals. They were cultured in high-glucose Dulbecco’s modified Eagle medium (Gibco, Grand Island, NY, USA) supplemented with 10% fetal calf serum, penicillin (100 U/mL) and streptomycin (100 μg/mL). All cultures were kept at 37 °C in 95% air/5% CO2 at 100% humidity. Phosphate-buffered saline (PBS) was purchased from Gibco. Cells were incubated at the indicated times at 37 °C with or without compounds 1–14 at various concentrations.
(§2) The cytotoxicity of the compounds 1–14 was assessed by following the reduction of MTT (3-(4,5-Dimethylthiazol-2-yl)-2,5-diphenyltetrazolium bromide) to formazan blue. […] Doxorubicin was used as a standard chemotherapeutic agent (positive control). Cells were washed twice with warm PBS and further incubated with MTT (0.5 mg/mL) for 2 h at 37 °C. Blue formazan crystals were solubilized by adding 100 µL DMSO/well, and the optical density of colored solutions was subsequently read at 550 nm in a microplate reader Tecan infinite M200 Pro (Männedorf, Switzerland). The compounds 1–14 were dissolved in DMSO (stock solution at 100 mM) and further diluted to be evaluated at the following concentrations: 0 μM, 1 μM, 10 μM, 20 μM, 40 μM, 60 μM, 80 μM and 100 μM. Results are expressed as % of MTT reduction compared to untreated control conditions. The IC50 values were calculated using the GraphPad Prism 8.0.2 software (San Diego, CA, USA).
For orientation: Tetrazolium dyes change colour on reduction, which living cells bring about.

The subject of data set [2] is HEK-293 cells/tumour cells. Nature of the data set: Mean selective index, HEK-293 vs tumour cells. It is filed as cell-based, human. The conditions noted are these: MSI = IC50 values HEK-293 cells/IC50 values tumour cells. As for the experimental part:
(§3) The cytotoxicity of the compounds 1–14 was assessed by following the reduction of MTT (3-(4,5-Dimethylthiazol-2-yl)-2,5-diphenyltetrazolium bromide) to formazan blue. Cells were seeded into 96-well plates at a density of 10,000 cells/well for 24 h and then they were further incubated for 24 h with or without the quinones. Doxorubicin was used as a standard chemotherapeutic agent (positive control). Cells were washed twice with warm PBS and further incubated with MTT (0.5 mg/mL) for 2 h at 37 °C. Blue formazan crystals were solubilized by adding 100 µL DMSO/well, and the optical density of colored solutions was subsequently read at 550 nm in a microplate reader Tecan infinite M200 Pro (Männedorf, Switzerland). The compounds 1–14 were dissolved in DMSO (stock solution at 100 mM) and further diluted to be evaluated at the following concentrations: 0 μM, 1 μM, 10 μM, 20 μM, 40 μM, 60 μM, 80 μM and 100 μM. Results are expressed as % of MTT reduction compared to untreated control conditions. The IC50 values were calculated using the GraphPad Prism 8.0.2 software (San Diego, CA, USA).

Data set [3] relates to DU-145 (prostate cancer cells). Nature of the data set: MTT cell survival assay, DU-145 prostate cancer cells. The data set is classed as cell-based. To be noted: Homo sapiens, MTT test, cells incubated at 37 °C for 48 h (Table 1 footnote), mean ± SEM, n = 3. As for the experimental part:
as §1, §2

Data set [4] concerns MCF-7 (mammary cancer cells). Nature of the data set: MTT cell survival assay, MCF-7 mammary cancer cells. To be noted: Homo sapiens, MCF7; MTT test; cells incubated at 37 °C for 48 h (Table 1 footnote); mean ± SEM, n = 3. It is filed as cell-based. As for the experimental part:
as §1, §2

The test system of data set [5] is T24 (Urinary bladder cancer cells). Nature of the data set: MTT cell survival assay, T24 urinary bladder cancer cells. The data set is classed as cell-based. To be noted: Homo sapiens; MTT test; cells incubated at 37 °C for 48 h (Table 1 footnote); mean ± SEM, n = 3. The procedure: as §1, §2
Data set [6] relates to DU-145, MCF-7 and T24 cancer cells. Kind of data set: Antiproliferative activity over DU-145, MCF-7 and T24 cancer cells. It is filed as cell-based, human. To be noted: summary of Table 1 (DU-145, MCF-7, T24). The procedure: as §1, §3
The nature of data set [7]: Half-wave potentials by cyclic voltammetry. It is filed as physicochemical. To be noted: for −E^I½ (mV): acetonitrile, platinum electrode, room temperature, negative of the potential; for half-wave potential: signed value. As for the experimental part:
Calculation of lipophilicity (ClogP) and molar refractivity (CMR) was assessed by using the ChemBioDraw Ultra 11.0 software and the obtained values are shown in Table 3. Redox potentials of 2-phenylamino-3-acyl-1,4-naphtoquinones 1–14 were measured by cyclic voltammetry at room temperature in acetonitrile as solvent using a platinum electrode and 0.1M tetraethylammonium tetrafluoroborate as the supporting electrolyte.

A word on the IC50: it is the point on the concentration scale where inhibition reaches its midpoint. As to `CCCCCCCCCCCC(=O)C1=C(Nc2ccccc2)C(=O)c2ccccc2C1=O` [Compound 3, 2-(Phenylamino)-3-dodecanoylnaphthalene-1,4-dione], the half-maximal inhibitory concentration (IC50) in data set [1], in data set [3], in data set [4] and in data set [5] was more than 100 µM each time. The “MSI (mean selective index)” value in data set [2] is 1.0. Besides, the “IC50 range over the cancer cell lines” value in data set [6] is listed as “almost devoid of activity”. Also, the “−E^I½ (mV)” value in data set [7] is given as 484 mV.

Regarding `O=C(C1=C(Nc2ccccc2)C(=O)c2ccccc2C1=O)c1cccs1` [Compound 12], the IC50 came out at 24.8 ± 1.41 µM in data set [1], 6.97 ± 0.6 µM in data set [3], 4.2 ± 0.06 µM in data set [4] and 11.7 ± 0.89 µM in data set [5]. In data set [2], the “MSI (mean selective index)” value was 3.3. For the same compound, the “−E^I½ (mV)” value in data set [7] amounted to 552 mV. Also, in data set [7], the half-wave potential is −552 mV.

For `CCCCCC(=O)C1=C(Nc2ccccc2)C(=O)c2ccccc2C1=O` [Compound 1, 2-(Phenylamino)-3-hexanoylnaphthalene-1,4-dione], the IC50 is 77.3 ± 3.66 µM in data set [1]; 60.89 ± 0.34 µM in data set [3]; 62.68 ± 0.53 µM in data set [4]; 86.7 ± 2.52 µM in data set [5]; 60.9 to 86.7 µM in data set [6] (Homo sapiens, read-out: IC50 range over the cancer cell lines). Also, in data set [2], the “MSI (mean selective index)” value amounted to 1.1. Besides, the “−E^I½ (mV)” value in data set [7] is recorded as 475 mV.

For the compound `CCCCCCCCCC(=O)C1=C(Nc2ccccc2)C(=O)c2ccccc2C1=O` [Compound 2, 2-(Phenylamino)-3-decanoylnaphthalene-1,4-dione], the IC50 was 79.8 ± 9.74 µM in data set [1], more than 100 µM in data set [3], more than 100 µM in data set [4] and more than 100 µM in data set [5]. For the same compound, the “MSI (mean selective index)” value in data set [2] was less than 0.8. Besides, the “IC50 range over the cancer cell lines” value in data set [6] is on record as “almost devoid of activity”. The “−E^I½ (mV)” value in data set [7] was 480 mV.

As to `COc1cccc(C(=O)C2=C(Nc3ccccc3)C(=O)c3ccccc3C2=O)c1` [Compound 5, 2-(Phenylamino)-3-(3-methoxybenzoyl)naphthalene-1,4-dione], the IC50 in data set [1] was 30.8 ± 4.07 µM; in data set [3] it was 10.2 ± 0.95 µM; in data set [4], 6.63 ± 0.13 µM; in data set [5], 12 ± 0.37 µM. Also, the “MSI (mean selective index)” value in data set [2] was found to be 3.2. Besides, in data set [7], the “−E^I½ (mV)” value is given as 500 mV.

For `COc1cc(C(=O)C2=C(Nc3ccccc3)C(=O)c3ccccc3C2=O)ccc1O` [Compound 9, 2-(Phenylamino)-3-(4-hydroxy-3-methoxybenzoyl)naphthalene-1,4-dione], the 50% inhibitory concentration (IC50) was found to be 47.7 ± 3.29 µM in data set [1], 12.5 ± 0.55 µM in data set [3], 5.81 ± 0.71 µM in data set [4] and 13.8 ± 1.87 µM in data set [5]. Further, the “MSI (mean selective index)” value in data set [2] is 4.5. Further, the “−E^I½ (mV)” value in data set [7] is given as 595 mV.

In the case of `Cc1ccc(C(=O)C2=C(Nc3ccccc3)C(=O)c3ccccc3C2=O)cc1` [Compound 10, 2-(Phenylamino)-3-(4-methylbenzoyl)naphthalene-1,4-dione], the IC50 was 78.8 ± 5.53 µM in data set [1], 11.1 ± 0.57 µM in data set [3], 14.2 ± 0.53 µM in data set [4] and 21.5 ± 2.26 µM in data set [5]. Moreover, the “MSI (mean selective index)” value in data set [2] was found to be 5.0. The “−E^I½ (mV)” value in data set [7] is reported as 770 mV.

Turning to `O=C(C1=C(Nc2ccccc2)C(=O)c2ccccc2C1=O)c1ccsc1` [Compound 13, 2-(Phenylamino)-3-(thiophene-3-carbonyl)naphthalene-1,4-dione], the IC50 in data set [1] was found to be 20.4 ± 2.77 µM; in data set [3] it was 8.91 ± 0.82 µM; in data set [4], 6.37 ± 0.23 µM; in data set [5] it was 13.8 ± 0.58 µM. Also, in data set [2], the “MSI (mean selective index)” value worked out at 2.1. In data set [7], the “−E^I½ (mV)” value was 635 mV. The compound further yielded a half-wave potential in data set [7] of −635 mV.

As to `COc1cc(C(=O)C2=C(Nc3ccccc3)C(=O)c3ccccc3C2=O)cc(OC)c1OC` [Compound 8, 2-(Phenylamino)-3-(3,4,5-trimethoxybenzoyl)naphthalene-1,4-dione], the 50% inhibitory concentration (IC50) in data set [1] came out at 37.4 ± 1.7 µM; in data set [3], 11.7 ± 0.29 µM; in data set [4] it was 4.88 ± 0.52 µM; in data set [5], 7.14 ± 0.2 µM. Besides, in data set [2], the “MSI (mean selective index)” value stood at 4.7. Moreover, the “−E^I½ (mV)” value in data set [7] was found to be 690 mV.

Turning to `O=C(C1=C(Nc2ccccc2)C(=O)c2ccccc2C1=O)c1ccc[nH]1` [Compound 14, 2-(Phenylamino)-3-(1H-pyrrole-2-carbonyl)naphthalene-1,4-dione], the IC50 was 13.7 ± 1.36 µM in data set [1], 14.5 ± 0.25 µM in data set [3], 10.7 ± 0.35 µM in data set [4] and 21.7 ± 0.22 µM in data set [5]. For the same compound, the “MSI (mean selective index)” value in data set [2] turned out to be 0.9. Further, the “−E^I½ (mV)” value in data set [7] is on record as 685 mV. For the same compound, in data set [7], the half-wave potential is recorded as −685 mV.

For the compound `COc1ccc(C(=O)C2=C(Nc3ccccc3)C(=O)c3ccccc3C2=O)cc1OC` [Compound 7, 2-(Phenylamino)-3-(3,4-dimethoxybenzoyl)naphthalene-1,4-dione], the IC50 in data set [1] stood at 79.9 ± 10.4 µM; in data set [3], 11.9 ± 0.22 µM; in data set [4], 10.6 ± 0.27 µM; in data set [5], 15.2 ± 0.88 µM. Moreover, in data set [2], the “MSI (mean selective index)” value was 6.4. Moreover, the “−E^I½ (mV)” value in data set [7] was 604 mV.

Regarding `COc1ccc(C(=O)C2=C(Nc3ccccc3)C(=O)c3ccccc3C2=O)cc1` [Compound 6, 2-(Phenylamino)-3-(4-methoxybenzoyl)naphthalene-1,4-dione], the IC50 in data set [1] was determined as 38.9 ± 3.3 µM; in data set [3], 19.5 ± 0.95 µM; in data set [4], 11.8 ± 0.54 µM; in data set [5], 13.3 ± 0.44 µM. Also, the “MSI (mean selective index)” value in data set [2] is 2.6. In data set [7], the “−E^I½ (mV)” value is 800 mV.

With `COc1cccc2c1C(=O)c1c(O)c3c(c(O)c1C2=O)C[C@@](O)(C(=O)CO)C[C@@H]3O[C@H]1C[C@H](N)[C@H](O)[C@H](C)O1` [DOX, Doxorubicin, reference compound], the IC50 amounted to 4.27 ± 0.34 µM in data set [1], 0.93 ± 0.06 µM in data set [3], 0.33 ± 0.05 µM in data set [4] and 0.46 ± 0.08 µM in data set [5]. Moreover, the “MSI (mean selective index)” value in data set [2] was determined as 7.5.
